For assay [1], the target named is T1, human CYP4F2 (Homo sapiens, UniProt P78329).
T1 construct: host or cells: Escherichia coli (membrane fraction)
T1 sequence (P78329 5-520): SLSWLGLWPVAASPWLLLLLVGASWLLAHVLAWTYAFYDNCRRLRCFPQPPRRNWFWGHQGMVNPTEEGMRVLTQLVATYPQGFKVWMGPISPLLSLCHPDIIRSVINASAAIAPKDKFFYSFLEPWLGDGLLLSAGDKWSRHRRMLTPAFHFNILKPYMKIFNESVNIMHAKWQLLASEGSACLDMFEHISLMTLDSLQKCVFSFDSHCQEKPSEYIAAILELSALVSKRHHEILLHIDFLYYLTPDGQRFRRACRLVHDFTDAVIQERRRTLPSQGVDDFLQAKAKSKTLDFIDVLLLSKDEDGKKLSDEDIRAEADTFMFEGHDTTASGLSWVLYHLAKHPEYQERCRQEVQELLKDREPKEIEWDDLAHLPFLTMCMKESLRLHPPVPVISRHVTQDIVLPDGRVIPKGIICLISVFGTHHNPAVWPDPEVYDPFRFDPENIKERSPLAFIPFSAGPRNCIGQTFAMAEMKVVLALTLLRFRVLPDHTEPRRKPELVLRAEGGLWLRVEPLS
Briefly: CYP4F2 inhibition test (Test Example 1). The class given is biochemical. As to conditions: Escherichia coli membrane fraction expressing human CYP4F2, 2.5 μM luciferine derivative, room temperature 60 minutes, luminescence. The procedure, abridged:
(§1)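 Luminescent read-out after adding luciferin detection reagent to a 60 min room-temperature reaction of compound with human CYP-expressing E. coli membrane fraction (100 μg/mL). Substrate and buffer differ: 60 μM luciferin derivative in Tris pH 7.5 with NADPH regeneration for CYP4A11; 2.5 μM in KPO4 pH 7.4 with 1 mM NADPH for CYP4F2.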

The target in assay [2] is T2, human CYP4A11 (Homo sapiens, UniProt Q02928).
T2 construct: host or cells: Escherichia coli (membrane fraction)
T2 sequence (Q02928 5-519): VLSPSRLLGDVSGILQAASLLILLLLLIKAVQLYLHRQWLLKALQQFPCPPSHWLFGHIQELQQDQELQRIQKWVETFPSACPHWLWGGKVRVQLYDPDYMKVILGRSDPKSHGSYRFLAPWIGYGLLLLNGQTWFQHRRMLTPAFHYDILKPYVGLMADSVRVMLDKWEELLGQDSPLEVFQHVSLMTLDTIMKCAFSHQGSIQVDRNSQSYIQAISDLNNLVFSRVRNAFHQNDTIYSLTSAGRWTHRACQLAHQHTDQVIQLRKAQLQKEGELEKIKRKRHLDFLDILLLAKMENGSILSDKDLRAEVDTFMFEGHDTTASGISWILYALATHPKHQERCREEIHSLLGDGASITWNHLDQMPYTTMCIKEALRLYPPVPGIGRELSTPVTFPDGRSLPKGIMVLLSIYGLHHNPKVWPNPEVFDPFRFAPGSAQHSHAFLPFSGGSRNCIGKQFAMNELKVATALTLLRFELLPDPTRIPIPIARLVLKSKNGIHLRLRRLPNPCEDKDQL
Briefly: CYP4A11 inhibition test (Test Example 1). The class given is biochemical. The following applies: Escherichia coli membrane fraction expressing human CYP4A11, 60 μM luciferine derivative, room temperature 60 minutes, luminescence. The procedure, abridged: as §1

As to `NC(=O)COc1ccc(C(=O)N2CCC[C@@H](COc3ccc(-c4ccn[nH]4)nc3)C2)cc1` [Example 3-25], the IC50 (commonly the concentration needed to halve the response being measured) in assay [1] was 110 nM; in assay [2] it was 560 nM.
On to `O=S1(=O)CCC(COc2ccc(-c3cn[nH]c3)nc2)CC1` [Example 43-3], for which the IC50 was 3800 nM in assay [1] and 600 nM in assay [2].
As to `CS(=O)(=O)c1cccc(COc2ccc(-c3[nH]ncc3C#N)nc2)c1` [Example 48-2, 5-{5-[(3-Methylsulfonylphenyl)methoxy]pyridin-2-yl}-1H-pyrazole-4-carbonitrile], the half-inhibitory concentration (IC50) in assay [1] was found to be 1700 nM; in assay [2], 770 nM.
The like results for `CS(=N)(=O)c1cccc(COc2ccc(-c3ccn[nH]3)nc2)c1` (racemic) [Example 50-1, Imino-methyl-oxo-(3-{[6-(1H-pyrazol-5-yl)pyridin-3-yl]oxymethyl}phenyl)-λ^6-sulfane] were, in that order, 580 nM and 240 nM.
On to `Cc1cn[nH]c1-c1ccc(OC[C@@H]2CCN(S(=O)(=O)N(C)C)C2)cn1` [Example 10-20], for which the values for the half-inhibitory concentration (IC50) in assay [1] and in assay [2] were 98 nM and 41 nM, respectively.
On to `O=C(CCCOc1ccccc1)N1CCC[C@@H](COc2ccc(-c3ccn[nH]3)nc2)C1` [Example 3-31], for which the figures for the half-inhibitory concentration (IC50) in assay [1] and in assay [2] were 4.9 nM and 43 nM, respectively.
For `CS(=O)(=O)c1cccc(COc2cnc(-c3ccn[nH]3)c(F)c2)c1` [Example 25-5], the IC50 is 110 nM in assay [1] and 45 nM in assay [2].
For the molecule `CS(=O)(=O)c1cccc(COc2ccc(-c3[nH]ncc3C(=O)NC3CC3)nc2)c1` [Example 47-1, N-Cyclopropyl-5-{5-[(3-methylsulfonylphenyl)methoxy]pyridin-2-yl}-1H-pyrazole-4-carboxamide], the IC50 is 15000 nM in assay [1] and > 50000 nM in assay [2].
In the same order, the values of `N#Cc1cccc(COc2ccc(-c3ccn[nH]3)nc2)c1` [54-19] are 15 nM and 390 nM.
In the case of `CS(=O)(=O)c1cccc(COc2ccc(-c3[nH]ncc3C(F)F)nc2)c1` [Example 46-1, 2-[4-(Difluoromethyl)-1H-pyrazol-5-yl]-5-[(3-methylsulfonylphenyl)methoxy]pyridine], the results for the half-inhibitory concentration (IC50) in assay [1] and in assay [2] were 7500 nM and 3900 nM, respectively.
Consider `CS(=O)(=O)CC(=O)N1CCC[C@@H](COc2ccc(-c3ccn[nH]3)nc2)C1` [Example 3-4], for which the IC50 in assay [1] is 4200 nM; in assay [2], 500 nM.
Turning to `COC(=O)N1CCC(CCOc2cnc(-c3ccn[nH]3)c(F)c2)CC1` [Example 24-6], the half-inhibitory concentration (IC50) in assay [1] turned out to be 25 nM; in assay [2], 64 nM.
Take `CC(=O)N1CCC(COc2ccc(-n3ccnn3)nc2)CC1` [Example 45-1, 1-(4-{[6-(Triazol-1-yl)pyridin-3-yl]oxymethyl}piperidin-1-yl)ethanone]: the IC50 was 370 nM in assay [1] and 1300 nM in assay [2].
On to `CN(C)C(=O)NCCC(=O)N1CCC[C@@H](COc2ccc(-c3ccn[nH]3)nc2)C1` [Example 1-35], for which the IC50 in assay [1] worked out at 320 nM; in assay [2], 890 nM.
As for `Fc1cc(COc2ccc(-c3ccn[nH]3)nc2)cc(F)c1F` [54-13], the results for the half-maximal inhibitory concentration (IC50) in assay [1] and in assay [2] were 170 nM and 480 nM, respectively.
Turning to `Cc1n[nH]cc1-c1ccc(OCc2cccc(S(C)(=O)=O)c2)cn1` [Example 41-2], the IC50 in assay [1] turned out to be 4300 nM; in assay [2], 1100 nM.
As to `O=C(CN1CCCOC1=O)N1CCC[C@@H](COc2ccc(-c3ccn[nH]3)nc2)C1` [Example 3-39], the IC50 in assay [1] was 3500 nM; in assay [2] it was 3400 nM.
Take `O=C(C1CC1)N1CCC(COc2ccc(-c3ccn[nH]3)nc2)CC1` [Example 1-5]: the results for the IC50 in assay [1] and in assay [2] were 110 nM and 530 nM, respectively.
The like results for `c1cc(-c2ccc(OCC3CCOCC3)cn2)[nH]n1` [Example 13-15] were, in that order, 270 nM and 140 nM.
Turning to `O=S(=O)(N1CCCCC1)N1CCC[C@H](COc2ccc(-c3ccn[nH]3)nc2)C1` [Example 10-11], the concentration for half-maximal inhibition (IC50) in assay [1] stood at 3.7 nM; in assay [2], 22 nM.

The record behind these values is patent publication US20210040062A1, “AZOLE-SUBSTITUTED PYRIDINE COMPOUND” (TAISHO PHARMACEUTICAL CO., LTD., priority 2016, published 2021).
